The record followed here is publication PMC4893694, “Identification of potent maturation inhibitors against HIV-1 clade C” (Scientific Reports, 2016).

The subject of data set [1] is HIV-1 clade B molecular clone NL4-3 (CA-SP1 processing). The settings on record: HEK-293T transfected with NL4-3, increasing concentrations 0.1–5.0 μM, western blot. As for the experimental part: (§1) Viral supernatants were pelleted and separated on SDS-PAGE followed by western blotting using HIV-IgG antibody.
(§2) 24 h post-transfection, the culture medium was replaced with fresh DMEM and incubated for another 2 h. MIs were maintained in the culture throughout transfection. […] The clarified supernatants were filtered (pore size 0.45 μm filter disc) to remove residual cellular contaminants. For determination of viral infectivity, the unconcentrated virus was used to infect TZM-bl cells.
(§3) To measure accumulation of CA-SP1, immunoblot analysis of virus-associated proteins was performed. The virus pellet was resuspended in radioimmunoprecipitation assay (RIPA) buffer (50 mM Tris-HCl pH 8.0, 150 mM sodium chloride, 1.0% NP-40, 0.5% sodium deoxycholate, 0.1% SDS) containing 1 × protease inhibitor cocktail (Roche, Germany). […] The proteins were visualized by enhanced chemiluminescence (Pierce, USA) and the bands were quantified using ImageJ software (http://imagej.nih.gov/ij/).

Data set [2] relates to HIV-1 clade C molecular clone ZM247 (CA-SP1 processing). As to conditions: HEK-293T transfected with ZM247, increasing concentrations 0.1–5.0 μM, western blot. As for the experimental part: as §1, §2, §3
On the technique in general: Immunoblotting shows a protein as a band on a membrane.

The subject of data set [3] is HIV-1 clade C molecular clone IndieC1 (CA-SP1 processing). As to conditions: HEK-293T transfected with IndieC1, increasing concentrations 0.1–5.0 μM, western blot. As for the experimental part: as §1, §2, §3
Data set [4] deals with HIV-1 clade C K3016 virus. The data set is described as follows: Antiviral assay, spreading HIV-1 infection in HUT-R5 T-cell line (p24 reduction). The class given is cell-based. As to conditions: Human immunodeficiency virus 1, T-cell, 192 h; HUT-R5 cells infected with K3016, 8 days, HIV-1 p24 in supernatant; representative of two independent experiments. The method, then:
HUT-R5 cells were infected with K3016 virus and cultured for eight days in the presence of serial dilutions of each compound. Antiviral activity was monitored by reduction in HIV-1 p24 levels in culture supernatants.
HUT-R5 cells were infected with normalized HIV-1 clade C K3016 virus stocks at 37 °C for 1 h. Cells were then maintained for 8 days in the presence of serial dilutions of MIs. After 8 days, the HIV-1 p24 concentration in the virus supernatants was measured to monitor virus replication.

Data set [5] can be described thus: Cytotoxicity assay (CellTitre-Blue) in HUT-R5. The settings on record: human, HUT-R5 cells; HUT-R5, 4 days. The class given is cell-based. As for the experimental part: (§4) Cytotoxicity assays were performed using the CellTitre-Blue Cell Viability Assay kit (Promega, USA) as per manufacturer’s recommendations. HEK-293T and HUT-R5 cell lines were maintained in the presence of serial dilutions of MIs for 4 days and treated with CellTitre-Blue reagent for 4 h at 37 °C. The fluorescent signals were recorded at 530/25excitation and 590/35emission using BioTek microplate reader.

The test system of data set [6] is HIV-1 clade C molecular clone K3016 (CA-SP1 processing). The class given is cell-based. The settings on record: for activity (CA-SP1 accumulation): K3016, 10 nM; for accumulation of the CA-SP1 processing intermediate over a range of doses: K3016, 2–50 nM. The method, then:
as §1, §2, §3

The nature of data set [7]: Cytotoxicity assay (CellTitre-Blue) in HEK-293T. As to conditions: human, HEK-293T cells. The class given is cell-based. The method, then: as §4

Structures are written as SMILES.

For the compound `C=C(C)[C@@H]1CC[C@]2(C(=O)O)CC[C@]3(C)[C@H](CC[C@@H]4[C@@]5(C)CC[C@H](OC(=O)CC(C)(C)C(=O)O)C(C)(C)[C@@H]5CC[C@]43C)[C@@H]12` [BVM, 3-0-(3′-3′-dimethylsuccinyl) betulinic acid, reference compound], the “accumulation of p25 (CA-SP1)” value in data set [1] is “dose-dependent accumulation of p25”; in data set [2] it was “resistant”; in data set [3] it was “resistant”; in data set [6] (HEK-293T transfected with K3016, increasing concentrations 0.1–5.0 μM, western blot), “resistant”. For the same compound, the IC50 (commonly the midpoint of a concentration-inhibition curve) in data set [4] was > 1000 nM. Moreover, the CC50 (as a rule, the concentration giving 50% cytotoxicity) at 4 days in data set [5] is > 1000 nM; in data set [7] it was > 5000 nM.

Compound `C=C(C)C1CCC2(CCNCCCN3CCCC3)CCC3(C)C(CCC4C5(C)CCC(OC(=O)CC(C)(C)CC(=O)O)C(C)(C)C5CCC43C)C12` (stereo not shown) [Compound 7h] returned an IC50 in data set [4] of 11.3 nM. Further, the CC50 at 4 days in data set [5] and in data set [7] was > 1000 nM throughout.

In turn, `C=C(C)C1CCC2(CCNC3CCN(C)CC3)CCC3(C)C(CCC4C5(C)CCC(OC(=O)CC(C)(C)CC(=O)O)C(C)(C)C5CCC43C)C12` (stereo not shown) [Compound 7j] had an IC50 in data set [4] of 5.9 nM. For the same compound, the CC50 at 4 days in data set [5] and in data set [7] was > 1000 nM in each case.

In turn, `C=C(C)C1CCC2(CCNCCN(C)C)CCC3(C)C(CCC4C5(C)CCC(OC(=O)CC(C)(C)CC(=O)O)C(C)(C)C5CCC43C)C12` (stereo not shown) [Compound 7m] gave an IC50 in data set [4] of 1.4 nM. In data set [5], the CC50 at 4 days was > 1000 nM. In data set [6], the “activity (CA-SP1 accumulation)” value is on record as ~40% and the “accumulation of the CA-SP1 processing intermediate over a range of doses” value (shortened to “accumulation … over a range of doses”) is recorded as “dose-dependent accumulation”. Also, the CC50 at 4 days in data set [7] is > 1000 nM.

`C=C(C)C1CCC2(CCNC3CCN(CC)CC3)CCC3(C)C(CCC4C5(C)CCC(OC(=O)CC(C)(C)CC(=O)O)C(C)(C)C5CCC43C)C12` (stereo not shown) [Compound 7r] gave an IC50 in data set [4] of 1.5 nM. Also, the CC50 at 4 days in data set [5] and in data set [7] was > 1000 nM each time. For the same compound, the “activity (CA-SP1 accumulation)” value in data set [6] is given as ~40%. Also, the “accumulation … over a range of doses” value in data set [6] is given as “dose-dependent accumulation”.

As for `C=C(C)C1CCC2(CCNC3CCN(CCO)CC3)CCC3(C)C(CCC4C5(C)CCC(OC(=O)CC(C)(C)CC(=O)O)C(C)(C)C5CCC43C)C12` (stereo not shown) [Compound 7s], the half-maximal inhibitory concentration (IC50) in data set [4] came to 1.3 nM. For the same compound, in data set [5], the CC50 at 4 days is > 1000 nM. Moreover, in data set [6], the “activity (CA-SP1 accumulation)” value is listed as ~40% and the “accumulation … over a range of doses” value is “dose-dependent accumulation”. The CC50 at 4 days in data set [7] is > 1000 nM.
